What is called MIC is the least concentration at which growth counts as inhibited. A lower MIC goes with a more susceptible organism.

The test system of this test is Vibrio anguillarum. In words: Antimicrobial activity against Vibrio anguillarum after 24 to 48 hrs. It is filed as functional.

≈ marks a conversion by molar mass, not a printed value.

As for `CC(C)C[C@H]1NC(=O)[C@@H](C(C)C)NC1=O`, 0.05 µg/mL (≈ 0.236 µM) was the least that counted as inhibitory (MIC).
In the case of `CC[C@@H](C)[C@H]1NC(=O)[C@@H]2CCCN2C1=O`, the minimum inhibitory concentration (MIC) was 0.11 µg/mL (≈ 0.523 µM).
`O=C1N[C@@H](Cc2ccccc2)C(=O)N2CCC[C@H]12` gave an MIC of 0.1 µg/mL (≈ 0.409 µM).
With `CC(C)[C@@H]1NC(=O)[C@H]2CCCN2C1=O`, it took 0.11 µg/mL (≈ 0.561 µM) to inhibit growth (MIC).
To `CC[C@@H](C)[C@@H]1NC(=O)[C@H]2CCCN2C1=O` belongs 0.12 µg/mL (≈ 0.571 µM); to `CC(C)[C@H]1NC(=O)[C@H]2CCCN2C1=O`, 0.05 µg/mL (≈ 0.255 µM).
`CC(C)C[C@H]1NC(=O)[C@H]2CCCN2C1=O` had an MIC of 0.04 µg/mL (≈ 0.19 µM).
In the case of `O=C1N[C@H](Cc2ccccc2)C(=O)N2C[C@H](O)C[C@H]12`, inhibition of growth (MIC) required 0.07 µg/mL (≈ 0.269 µM).
The value for `CC(C)[C@H]1NC(=O)[C@@H]2CCCN2C1=O` was 0.14 µg/mL (≈ 0.713 µM); that for `CC(C)C[C@@H]1NC(=O)[C@H]2CCCN2C1=O` was 0.13 µg/mL (≈ 0.618 µM); that for `O=C1N[C@H](Cc2ccccc2)C(=O)N2CCC[C@H]12` was 0.03 µg/mL (≈ 0.123 µM).
Take `CC(C)C[C@H]1NC(=O)[C@@H]2CCCN2C1=O`: inhibition of growth (MIC) required 0.12 µg/mL (≈ 0.571 µM).
`O=C1N[C@H](Cc2ccccc2)C(=O)N2CCC[C@@H]12` showed an MIC of 0.13 µg/mL (≈ 0.532 µM).
`CC(C)C[C@H]1NC(=O)[C@@H](Cc2cnc[nH]2)NC1=O`: 0.07 µg/mL (≈ 0.28 µM) was the least that counted as inhibitory (MIC).
On to `CC[C@@H](C)[C@H]1NC(=O)[C@H]2CCCN2C1=O`, for which 0.05 µg/mL (≈ 0.238 µM) was the least that counted as inhibitory (MIC).

Source of the values: ChEMBL document CHEMBL1147226, “dd-diketopiperazines: antibiotics active against Vibrio anguillarum isolated from marine bacteria associated with cultures of Pecten maximus” (2003).
